According to patent US4579822A (priority 1983, dated 1986):
Like-named read-outs stand apart in the source and are kept apart here.

How the values were obtained:
Format in all cases: biochemical, Schizosaccharomyces pombe IFO 0354
DHAK (I) [1] = biological target: T1, DHAK (I) (Schizosaccharomyces pombe, UniProt O13902); test: Specificity of DHAK (I) for phosphate donor; conditions: Adenosine 5'-triphosphate = 100%
T1 construct: DHAK (I) and DHAK (II) obtained from Schizosaccharomyces pombe IFO 0354; made in house; host or cells: Schizosaccharomyces pombe IFO 0354 (natural producer, not recombinant); cell extract, DEAE-Sepharose fraction at 0.12 M KCl, then Blue-Sepharose
T1 sequence (O13902 1-580): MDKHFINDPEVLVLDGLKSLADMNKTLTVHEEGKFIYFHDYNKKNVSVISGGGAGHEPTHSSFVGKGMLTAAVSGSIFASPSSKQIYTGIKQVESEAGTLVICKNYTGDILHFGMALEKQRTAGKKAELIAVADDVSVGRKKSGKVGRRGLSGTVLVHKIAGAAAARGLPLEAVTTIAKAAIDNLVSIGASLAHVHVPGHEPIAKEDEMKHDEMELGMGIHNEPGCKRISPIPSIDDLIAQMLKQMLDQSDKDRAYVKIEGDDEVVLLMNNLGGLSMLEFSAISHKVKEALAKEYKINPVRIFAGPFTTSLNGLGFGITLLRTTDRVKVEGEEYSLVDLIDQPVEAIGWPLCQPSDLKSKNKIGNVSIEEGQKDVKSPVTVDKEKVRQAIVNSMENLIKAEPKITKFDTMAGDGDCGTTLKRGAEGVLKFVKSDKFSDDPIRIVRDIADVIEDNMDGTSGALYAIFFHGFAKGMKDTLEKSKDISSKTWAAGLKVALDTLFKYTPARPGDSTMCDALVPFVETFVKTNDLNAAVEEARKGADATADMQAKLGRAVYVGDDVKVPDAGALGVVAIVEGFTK
Method: (§1) The reaction is started by adding enzyme solution, and the decrease of the absorbance at 340 nm is measured spectrophotometrically at 25° C. In the blank assay, DHA is excluded from the reaction mixture. One unit of the enzyme activity is defined as the amount of enzyme which catalyzes the formation of 1 μmol NAD^+ in one minute under the above conditions. The above reaction is represented by the following equations: [drawing 3]

DHAK (II) [2] = biological target: T2, DHAK (II) (Schizosaccharomyces pombe, UniProt O74215); test: Specificity of DHAK (II) for phosphate donor; conditions: Adenosine 5'-triphosphate = 100%
T2 construct: DHAK (I) and DHAK (II) obtained from Schizosaccharomyces pombe IFO 0354; made in house; host or cells: Schizosaccharomyces pombe IFO 0354 (natural producer, not recombinant); cell extract, DEAE-Sepharose fraction at 0.16 M KCl, then Blue-Sepharose
T2 sequence (O74215 1-591): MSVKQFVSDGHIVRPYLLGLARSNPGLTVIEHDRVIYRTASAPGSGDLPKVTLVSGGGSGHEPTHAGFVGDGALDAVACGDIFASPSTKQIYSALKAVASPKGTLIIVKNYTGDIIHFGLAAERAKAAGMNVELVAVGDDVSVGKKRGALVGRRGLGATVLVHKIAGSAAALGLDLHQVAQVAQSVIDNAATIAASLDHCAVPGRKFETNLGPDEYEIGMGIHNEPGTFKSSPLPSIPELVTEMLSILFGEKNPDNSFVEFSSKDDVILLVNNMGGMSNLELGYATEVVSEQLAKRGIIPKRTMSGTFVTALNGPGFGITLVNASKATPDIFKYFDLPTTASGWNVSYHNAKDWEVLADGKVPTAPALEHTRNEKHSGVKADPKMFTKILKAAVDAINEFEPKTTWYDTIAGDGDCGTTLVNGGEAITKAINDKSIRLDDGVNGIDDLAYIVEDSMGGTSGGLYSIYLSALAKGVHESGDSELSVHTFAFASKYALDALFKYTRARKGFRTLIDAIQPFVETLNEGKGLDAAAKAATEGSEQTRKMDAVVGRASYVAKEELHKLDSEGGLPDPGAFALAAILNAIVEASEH
Method: as §1

DHAK (II) [3] = test: Substrate specificity of DHAK (II); conditions: each substrate 1.0 mM, pH 7.5, 25° C.; DHA = 100%
Method: (§2) The reaction mixture for measuring the substrate specificity of DHAK consists of 1.0 ml of 0.1M triethanolamine-HCl buffer (pH 7.5), 2.5 mM ATP, 4 mM MgSO4, 0.2 mM NADH, 1.3 mM phosphoenolpyruvate, 6 units of pyruvate kinase, 6 units of lactate dehydrogenase (Boehringer Mannheim GmbH), 0.01 ml of enzyme solution and each substrate (1.0 mM) as shown in Table 1. The reaction is started by adding enzyme solution and measured the decrease in the absorbance at 340 nm at 25° C. The above reaction is represented by the following equations: [drawing 4]

DHAK (I) [4] = biological target: T1, DHAK (I); test: Substrate specificity of DHAK (I)
Method: as §2

DHAK (II) [5] = biological target: T2, DHAK (II); test: Specificity of DHAK (II) for divalent metal cations; conditions: for Relative activity DHAK (II) (metal cation): each divalent metal cation 4 mM, MgSO4 = 100%
Method: as §1
(§3) Each divalent metal cation (4 mM) was added to the reaction mixture and the activity of the enzyme was measured.

DHAK (I) [6] = biological target: T1, DHAK (I); test: Specificity of DHAK (I) for divalent metal cations; conditions: for Relative activity DHAK (I) (metal cation): each divalent metal cation 4 mM, MgSO4 = 100%
Method: as §1, §3

[7] = pH 7.5, read-out: Relative activity DHAK (I) (substrate)
[8] = cation 4 mM, summary of Table 3
[9] = concentration in the reaction mixture

Row | SMILES | Relative activity DHAK (I) (phosphate donor) (DHAK (I) [1]) [%] | Relative activity DHAK (II) (phosphate donor) (DHAK (II) [2]) [%] | Relative activity DHAK (II) (substrate) (DHAK (II) [3]) [%] | Relative activity DHAK (II) (metal cation) (DHAK (II) [5]) [%] | Relative activity DHAK (I) (metal cation) (DHAK (I) [6]) [%] | other results
1 | O=P(O)(O)OP(=O)(O)OP(=O)(O)OC[C@H]1O[C@@H](n2cnc3c(O)ncnc32)[C@H](O)[C@@H]1O [Inosine 5'-triphosphate] | 0 | 0 | – | – | – | –
2 | O=P(O)(O)OCC(O)CO (stereo not drawn) [Glycerol-3-phosphate] | – | – | 0 | – | – | activity at 1000 µM (DHAK (I) [4]; pH 7.5; read-out: Relative activity DHAK (I) (substrate)): 0%
3 | [Cl][Mn][Cl] [MnCl2] | – | – | – | 9 | 15 | –
4 | CC(=O)CO [Acetol] | – | – | 0 | – | – | activity at 1000 µM (DHAK (I) [4]; [7]): 0%
5 | O=S(=O)([O-])[O-].[Mg+2] [MgSO4] | – | – | – | 100 | 100 | Metal cation ranking for DHAK (II) (in words) (DHAK (II) [5]; [8]): maximum activity; Mg^2+ concentration giving sufficient activity of DHAK (II) (DHAK (II) [5]; [9]): ≥ 4 mM; Mg^2+ concentration giving sufficient activity of DHAK (I) (DHAK (I) [6]; [9]): ≥ 4 mM
6 | CC(O)CO (stereo not drawn) [1,2-Propanediol] | – | – | 0 | – | – | activity at 1000 µM (DHAK (I) [4]; [7]): 0%
7 | Nc1nc2c(ncn2[C@@H]2O[C@H](COP(=O)(O)OP(=O)(O)OP(=O)(O)O)[C@@H](O)[C@H]2O)c(=O)[nH]1 [Guanosine 5'-triphosphate] | 0 | 0 | – | – | – | –
8 | [Ca+2].[Cl-].[Cl-] [CaCl2] | – | – | – | 44 | 125 | Metal cation ranking for DHAK (I) (in words) (DHAK (I) [6]; [8]): maximum activity
9 | O=c1ccn([C@@H]2O[C@H](COP(=O)(O)OP(=O)(O)OP(=O)(O)O)[C@@H](O)[C@H]2O)c(=O)[nH]1 [Uridine 5'-triphosphate] | 3.9 | 3.6 | – | – | – | –
10 | [Cl-].[Cl-].[Co+2] [CoCl2] | – | – | – | 22 | 29 | –
